Biological target: human P2X3 receptor (Homo sapiens (Human), UniProt P56373)
Assay: Evaluation of human P2X3 receptor inhibitory activity (Test Example 1)
Format: cell-based
Details: C6BU-1 cell transfected with human P2X3 receptor gene, FLIPR 384
Experimental: Stably expressing cell line (C6BU-1 cell transfected with human P2X3 receptor gene (GenBank accession number Y07683) was used. The cells were seeded in a 384-well PDL-coated microtiter plate at a concentration of 3000 cells/well and cultured in the medium (8.3% fetal bovine serum, 8.3% horse serum, and 1% antibiotic and antifungal in DMEM) for one day at 37° C. under 5% carbon dioxide atmosphere. The medium was replaced with 4 μM Fluo-3-AM solution (20 mM HEPES, 137 mM NaCl, 2.7 mM KCl, 0.9 mM MgCl2, 5.0 mM CaCl2, 5.6 mM D-glucose, 2.5 mM probenecid, 0.5% BSA, and 0.04% Pluronic F-127, pH 7.5) and incubated at 37° C. under 5% dioxide carbon atmosphere for one hour. The plate was washed with washing buffer (20 mM HEPES, 137 mM NaCl, 2.7 mM KCl, 0.9 mM MgCl2, 5.0 mM CaCl2, 5.6 mM D-glucose, 2.5 mM probenecid, pH7.5), and each well was added with 20 μL of the washing buffer. The plate was placed in High-Throughput Screening System FLIPR 384 (Molecular Device Co.). Measurement of fluorescence intensity by FLIPR 384 was started, and 20 μL of DMSO solutions containing different concentrations of the test compound as prepared by dilution with dilution buffer (20 mM HEPES, 137 mM NaCl, 2.7 mM KCl, 0.9 mM MgCl2, 5.0 mM CaCl2, 5.6 mM D-glucose, 2.5 mM probenecid, 0.1% Pluronic F-127, pH7.5) were dispensed to each well through the built-in automatic dispenser. Five minutes after, 150 nM ATP solution (25 μL) prepared by dilution with the dilution buffer was dispensed through the built-in automatic dispenser, and the measurement of fluorescence intensity was continued for 4 min. For each well, the specific maximum fluorescence intensity was calculated as the ratio of the maximum fluorescence intensity after addition of the ATP solution to the fluorescence intensity at the starting of the measurement. […] The specific maximum fluorescence intensity and IC50 were calculated using Spotfire (Science & Technology Systems, Inc.)

Chain of human P2X3 receptor (P56373 whole entry): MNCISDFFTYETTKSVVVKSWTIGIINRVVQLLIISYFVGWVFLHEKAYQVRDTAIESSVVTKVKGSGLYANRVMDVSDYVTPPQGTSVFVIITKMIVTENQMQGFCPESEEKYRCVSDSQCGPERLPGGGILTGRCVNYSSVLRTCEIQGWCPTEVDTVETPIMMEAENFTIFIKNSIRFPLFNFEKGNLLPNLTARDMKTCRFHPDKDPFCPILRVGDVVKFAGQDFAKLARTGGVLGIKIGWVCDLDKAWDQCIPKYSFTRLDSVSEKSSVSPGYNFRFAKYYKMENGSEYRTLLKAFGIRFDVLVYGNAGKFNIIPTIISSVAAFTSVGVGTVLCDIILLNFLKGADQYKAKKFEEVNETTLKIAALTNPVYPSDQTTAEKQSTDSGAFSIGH

| SMILES | IC50 [nM] |
| --- | --- |
| Cc1ccc(Cn2c(=O)n(CC(C)(C)C(=O)O)c(=O)[nH]/c2=N\c2ccc(Oc3ncccc3Cl)cc2)cc1 [Compound I-118] | 9 |
| Cc1ccc(Cn2c(=O)n(C[C@H](C)C(=O)O)c(=O)[nH]/c2=N\c2ccc(Oc3cccc(Cl)n3)cc2)cc1 [Compound I-119] | 6 |
| COC(=O)[C@H](C)[C@H](C)n1c(=O)[nH]/c(=N\c2ccc(Oc3ccc(Cl)cn3)cc2)n(Cc2ccc(C)cc2)c1=O [Compound I-120] | 9 |
| COC(=O)[C@H](Cn1c(=O)[nH]/c(=N\c2ccc(Oc3ccc(F)cn3)cc2)n(Cc2ccc(Cl)cc2)c1=O)OC [Compound I-121] | 6 |
| COC(=O)[C@H](Cn1c(=O)[nH]/c(=N\c2ccc(Oc3cccc(F)n3)cc2)n(Cc2ccc(Cl)cc2)c1=O)OC [Compound I-122] | 4 |
| Cc1ccc(Cn2c(=O)n([C@@H](C)[C@@H](C)C(=O)O)c(=O)[nH]/c2=N\c2ccc(Oc3ccc(Cl)cn3)cc2)cc1 [Compound I-123] | 5 |
| CO[C@@H](Cn1c(=O)[nH]/c(=N\c2ccc(Oc3ccc(F)cn3)cc2)n(Cc2ccc(Cl)cc2)c1=O)C(=O)O [Compound I-124] | 5 |
| CO[C@@H](Cn1c(=O)[nH]/c(=N\c2ccc(Oc3cccc(F)n3)cc2)n(Cc2ccc(Cl)cc2)c1=O)C(=O)O [Compound I-125] | 5 |
| COC(=O)[C@@H](C)Cn1c(=O)[nH]/c(=N\c2ccc(Oc3ccccn3)cc2)n(Cc2ccc(Cl)cc2)c1=O [Compound I-126] | 5 |
| Cc1ccc(Cn2c(=O)n(CC(C)(C)C(=O)O)c(=O)[nH]/c2=N\c2ccc(Oc3cccc(Cl)n3)cc2)cc1 [Compound I-128] | 8 |
| COC(=O)[C@H](C)Cn1c(=O)[nH]/c(=N\c2ccc(Oc3ccccn3)cc2)n(Cc2ccc(Cl)cc2)c1=O [Compound I-131] | 8 |
| COC(=O)[C@@H](C)Cn1c(=O)[nH]/c(=N\c2ccc(Oc3ccc(OC(F)F)cn3)cc2)n(Cc2ccc(C)cc2)c1=O [Compound I-132] | 8 |
| COC(=O)C(C)(C)Cn1c(=O)[nH]/c(=N\c2ccc(Oc3ccc(OC(F)F)cn3)cc2)n(Cc2ccc(C)cc2)c1=O [Compound I-133] | 8 |
| C[C@@H](C(=O)O)[C@H](C)n1c(=O)[nH]/c(=N\c2ccc(Oc3cc(C#N)ccn3)cc2)n(Cc2ccc(Cl)cc2)c1=O [Compound I-134] | 7 |
| Cc1ccc(Cn2c(=O)n(C[C@H](C)C(=O)O)c(=O)[nH]/c2=N\c2ccc(Oc3ccc(OC(F)F)cn3)cc2)cc1 [Compound I-135] | 4 |
| Cc1ccc(Cn2c(=O)n(CC(C)(C)C(=O)O)c(=O)[nH]/c2=N\c2ccc(Oc3ccc(OC(F)F)cn3)cc2)cc1 [Compound I-136] | 7 |
| COC(=O)[C@H](C)[C@H](C)n1c(=O)[nH]/c(=N\c2ccc(Oc3ccc(OC(F)F)cn3)cc2)n(Cc2ccc(C)cc2)c1=O [Compound I-137] | 14 |
| Cc1ccc(Cn2c(=O)n([C@@H](C)[C@@H](C)C(=O)O)c(=O)[nH]/c2=N\c2ccc(Oc3ccc(OC(F)F)cn3)cc2)cc1 [Compound I-138] | 7 |
| COC(=O)[C@@H](C)Cn1c(=O)[nH]/c(=N\c2ccc(Oc3cc(OC)ccn3)cc2)n(Cc2ccc(Cl)cc2)c1=O [Compound I-139] | 10 |
| COC(=O)[C@H](C)Cn1c(=O)[nH]/c(=N\c2ccc(Oc3ccccn3)cc2)n(Cc2ccc(C)cc2)c1=O [Compound I-140] | 3 |
| C[C@H](Cn1c(=O)[nH]/c(=N\c2ccc(Oc3ccccn3)cc2)n(Cc2ccc(Cl)cc2)c1=O)C(=O)O [Compound I-141] | 14 |
| COC(=O)[C@@H](C)Cn1c(=O)[nH]/c(=N\c2ccc(Oc3ccccn3)cc2)n(C[C@H]2CC[C@H](C)CC2)c1=O [Compound I-142] | 7 |
| COC(=O)[C@H](Cn1c(=O)[nH]/c(=N\c2ccc(Oc3ccccn3)cc2)n(Cc2ccc(Cl)cc2)c1=O)OC [Compound I-143] | 5 |
| COC(=O)[C@H](C)[C@H](C)n1c(=O)[nH]/c(=N\c2ccc(Oc3ccccn3)cc2)n(Cc2ccc(Cl)cc2)c1=O [Compound I-144] | 9 |
| C[C@@H](Cn1c(=O)[nH]/c(=N\c2ccc(Oc3ccccn3)cc2)n(C[C@H]2CC[C@H](C)CC2)c1=O)C(=O)O [Compound I-145] | 6 |
| CO[C@@H](Cn1c(=O)[nH]/c(=N\c2ccc(Oc3ccccn3)cc2)n(Cc2ccc(Cl)cc2)c1=O)C(=O)O [Compound I-146] | 5 |
| C[C@@H](C(=O)O)[C@H](C)n1c(=O)[nH]/c(=N\c2ccc(Oc3ccccn3)cc2)n(Cc2ccc(Cl)cc2)c1=O [Compound I-147] | 7 |

| SMILES | IC50 [nM] |
| --- | --- |
| Cc1ccc(Cn2c(=O)n(C[C@@H](C)C(=O)O)c(=O)[nH]/c2=N\c2ccc(Oc3ccccn3)cc2)cc1 [Compound I-148] | 9 |
| COC(=O)C(C)(C)Cn1c(=O)[nH]/c(=N\c2ccc(Oc3ccccn3)cc2)n(Cc2ccc(Cl)cc2)c1=O [Compound I-149] | 5 |
| COC(=O)C(C)(C)Cn1c(=O)[nH]/c(=N\c2ccc(Oc3ccccn3)cc2)n(Cc2ccc(C)cc2)c1=O [Compound I-150] | 4 |
| COC(=O)[C@@H](C)[C@@H](C)n1c(=O)[nH]/c(=N\c2ccc(Oc3ccccn3)cc2)n(Cc2ccc(Cl)cc2)c1=O [Compound I-151] | 10 |
| C[C@H](C(=O)O)[C@@H](C)n1c(=O)[nH]/c(=N\c2ccc(Oc3ccccn3)cc2)n(Cc2ccc(Cl)cc2)c1=O [Compound I-152] | 6 |
| COC(=O)[C@@H](C)Cn1c(=O)[nH]/c(=N\c2ccc(Oc3ncccc3OC)cc2)n(Cc2ccc(Cl)cc2)c1=O [Compound I-153] | 13 |
| CC(C)(Cn1c(=O)[nH]/c(=N\c2ccc(Oc3ccccn3)cc2)n(Cc2ccc(Cl)cc2)c1=O)C(=O)O [Compound I-154] | 8 |
| Cc1ccc(Cn2c(=O)n(CC(C)(C)C(=O)O)c(=O)[nH]/c2=N\c2ccc(Oc3ccccn3)cc2)cc1 [Compound I-155] | 8 |
| COc1cccnc1Oc1ccc(/N=c2\[nH]c(=O)n(C[C@H](C)C(=O)O)c(=O)n2Cc2ccc(Cl)cc2)cc1 [Compound I-156] | 12 |
| COC(=O)C[C@@H](C)n1c(=O)[nH]/c(=N\c2ccc(Oc3ccccn3)cc2)n(Cc2ccc(Cl)cc2)c1=O [Compound I-157] | 5 |
| COC(=O)C[C@@H](C)n1c(=O)[nH]/c(=N\c2ccc(Oc3cccc(F)n3)cc2)n(Cc2ccc(Cl)cc2)c1=O [Compound I-158] | 6 |
| COC(=O)C(C)(C)Cn1c(=O)[nH]/c(=N\c2ccc(Oc3ncccc3OC)cc2)n(Cc2ccc(Cl)cc2)c1=O [Compound I-159] | 9 |
| COC(=O)C[C@@H](C)n1c(=O)[nH]/c(=N\c2ccc(Oc3ccc(F)cn3)cc2)n(Cc2ccc(Cl)cc2)c1=O [Compound I-160] | 5 |
| COC(=O)C[C@@H](C)n1c(=O)[nH]/c(=N\c2ccc(Oc3ncccc3F)cc2)n(Cc2ccc(Cl)cc2)c1=O [Compound I-161] | 10 |
| C[C@H](CC(=O)O)n1c(=O)[nH]/c(=N\c2ccc(Oc3cccc(F)n3)cc2)n(Cc2ccc(Cl)cc2)c1=O [Compound I-163] | 8 |
| COc1cccnc1Oc1ccc(/N=c2\[nH]c(=O)n(CC(C)(C)C(=O)O)c(=O)n2Cc2ccc(Cl)cc2)cc1 [Compound I-164] | 29 |
| C[C@H](CC(=O)O)n1c(=O)[nH]/c(=N\c2ccc(Oc3ccc(F)cn3)cc2)n(Cc2ccc(Cl)cc2)c1=O [Compound I-165] | 15 |
| C[C@H](CC(=O)O)n1c(=O)[nH]/c(=N\c2ccc(Oc3ncccc3F)cc2)n(Cc2ccc(Cl)cc2)c1=O [Compound I-166] | 13 |
| C[C@@H](Cn1c(=O)[nH]/c(=N\c2ccc(Oc3ccc(F)cn3)cc2)n(Cc2ccc(C(F)F)cc2)c1=O)C(=O)O [Compound I-167] | 19 |
| C[C@@H](Cn1c(=O)[nH]/c(=N\c2ccc(Oc3cccc(F)n3)cc2)n(Cc2ccc(C(F)F)cc2)c1=O)C(=O)O [Compound I-168] | 12 |
| C[C@@H](Cn1c(=O)[nH]/c(=N\c2ccc(Oc3ncccc3F)cc2)n(Cc2ccc(C(F)F)cc2)c1=O)C(=O)O [Compound I-169] | 21 |
| CCOC(=O)[C@H]1C[C@H](n2c(=O)[nH]/c(=N\c3ccc(Oc4ccccn4)cc3)n(Cc3ccc(Cl)cc3)c2=O)C1 [Compound I-170] | 15 |
| CCOC(=O)[C@H]1C[C@@H](n2c(=O)[nH]/c(=N\c3ccc(Oc4ccccn4)cc3)n(Cc3ccc(Cl)cc3)c2=O)C1 [Compound I-171] | 9 |
| CCOC(=O)[C@H]1C[C@@H](n2c(=O)[nH]/c(=N\c3ccc(Oc4ccc(Cl)cn4)cc3)n(Cc3ccc(C)cc3)c2=O)C1 [Compound I-173] | 8 |
| O=c1[nH]/c(=N\c2ccc(Oc3ccccn3)cc2)n(Cc2ccc(Cl)cc2)c(=O)n1[C@H]1C[C@H](C(=O)O)C1 [Compound I-174] | 6 |
| O=c1[nH]/c(=N\c2ccc(Oc3ccccn3)cc2)n(Cc2ccc(Cl)cc2)c(=O)n1[C@H]1C[C@@H](C(=O)O)C1 [Compound I-175] | 9 |
